Values joined by “and” are separate entries in the source; they are usually repeats but may differ in a detail not shown here. Equal entries are not always repeated.
Assays:
[1] = system: ACh in the cortical and hippocampal regions of the brain; conditions: U.S. Pat. No. 5,137,878; cited from earlier work
PC12 cells = test: neurite outgrowth in PC12 cells; format: cell-based; conditions: seven days after treatment
Procedure: A study of the neurotrophic effects of HT1001 and some pure ginsenosides was conducted. A new mechanism of action for HT1001 was shown, which is the stimulation of neurite outgrowth in a PC12 cell line. […] The beneficial effects (prevention/treatment) of HT-1001 may apply to degenerative diseases such as senile dementia, Parkinson's disease, Alzheimer's disease, multi-infarct dementia, etc. Alzheimer's disease (AD) is associated with degeneration of cholinergic nerve tracts including projections from the basal forebrain to the cortex and hippocampus. The PC12 (pheochromocytoma) cell line is one of the models for the study of the development of these nerve tracts. The cell line is phenotypically a chromaffin cell line, but can be induced to express adrenergic and cholinergic markers as well. This model has the advantages that (1) it is an immortalized cell line, (2) it is sensitive to, but not dependent upon, NGF for survival, and (3) it shares many properties in common with the central cholinergic neurons of the basal forebrain. It has been noted that PC12 cells are not sensitive to all of the trophic factors that central cholinergic neurons respond to, whereas central cholinergic neurons respond to all trophic factors that PC12 cells respond to. […] The cellular responses to Nerve Growth Factor (NGF) and samples were determined by counting the number of cells containing processes in PC12 cells. […] The cells and neurites were counted as follows: The cells with circular or global shape and no neurite outgrowth were scored as 0 (S0). […] Cells with more than two small neurites on the cell bodies were scored as S2. Cells with one or two neurites with a length of at least two times diameter as their body were scored as S3. Cells with more than two long neurites were scored as S4. The neurite index was calculated as below: Neurite index (In)=total neurite Score (ΣS)/total cell number (.[…] is the cell number of every cell field. The test samples included: […]

[2] = system: choline uptake into synaptosomes, whole brain; conditions: Benishin 1992 / previously demonstrated; cited from earlier work
rats = conditions: rat, in vivo; cited from earlier work
[3] = system: choline uptake into synaptosomes, hippocampus; test: choline uptake into synaptosomes from rat hippocampus; format: biochemical; conditions: 1 × 10^-6M, n = 10, 1 µM
Text: We also studied the effects of HT1001 on choline uptake in synaptosomes.
We have examined choline uptake in synaptosome preparations from whole brain and hippocampus in the presence of Rb1, HT1001 and HC3.

SMILES	availability of ACh [1]	symptoms of Alzheimer-type senile dementia [1]	neurite outgrowth (FIG. 31) (PC12 cells)	choline uptake (literature) [2]	learning and memory (literature) (rats)	choline uptake, Rb1 [3]
CC(C)=CCC[C@](C)(O[C@@H]1O[C@H](CO[C@@H]2O[C@H](CO)[C@@H](O)[C@H](O)[C@H]2O)[C@@H](O)[C@H](O)[C@H]1O)[C@H]1CC[C@]2(C)[C@@H]1[C@H](O)C[C@@H]1[C@@]3(C)CC[C@H](O[C@@H]4O[C@H](CO)[C@@H](O)[C@H](O)[C@H]4O[C@@H]4O[C@H](CO)[C@@H](O)[C@H](O)[C@H]4O)C(C)(C)[C@@H]3CC[C@]12C [Rb1, ginsenoside Rb1]	enhance the availability of ACh	alleviate the symptoms of Alzheimer-type senile dementia	significantly increased neurite outgrowth	increase choline uptake	enhance learning and memory	126 % control and 111 % control and 125 % control
CC(C)=CCC[C@](C)(O[C@@H]1O[C@H](CO)[C@@H](O)[C@H](O)[C@H]1O)[C@H]1CC[C@]2(C)[C@@H]1[C@H](O)C[C@@H]1[C@@]3(C)CC[C@H](O)C(C)(C)[C@@H]3[C@@H](O[C@@H]3O[C@H](CO)[C@@H](O)[C@H](O)[C@H]3O)C[C@]12C [Rg1, ginsenoside Rg1]	enhance the availability of ACh	alleviate the symptoms of Alzheimer-type senile dementia	significantly increased neurite outgrowth	–	–	–

Reference: patent publication US6083932A, “Pharmaceutical compositions derived from ginseng and methods of treatment using same” (CV Technologies Inc., priority 1998, dated 2000)
